Structures can show the parent of a compound that is named as a salt.
Assay: Physical stability of the crystalline salt at elevated temperature and humidity
Type: physicochemical

- stability at elevated temperature and humidity (elevated temperature and humidity (general statement)): unexpectedly stable
- physical stability (solid crystalline salt, 40° C. at 75% relative humidity for 2 weeks): physically stable
SMILES: N[C@@H](CC(=O)N1CCn2c(nnc2C(F)(F)F)C1)Cc1cc(F)c(F)cc1F [Bis-[(2R)-4-oxo-4-[3-(trifluoromethyl)-5,6-dihydro[1,2,4]triazolo[4,3-a]pyrazin-7(8H)-yl]-1-(2,4,5-trifluorophenyl)butan-2-amine]phosphoric acid trihydrate salt]
